Measured values reported in patent US7517888B2, “A1 adenosine receptor antagonists” (CV Therapeutics, Inc., priority 2004, dated 2009).
Where two headings read alike, the source gives them in different places.

What was measured:
Hamster-A1 (DDT1 MF-2) = molecular target: T1, Hamster-A1 (DDT1 MF-2) (Mesocricetus auratus, UniProt A0A1U8BVR4); experiment: Radioligand binding, hamster A1 AdoR, DDT1 MF-2 membranes
T1 sequence (A0A1U8BVR4 1-326): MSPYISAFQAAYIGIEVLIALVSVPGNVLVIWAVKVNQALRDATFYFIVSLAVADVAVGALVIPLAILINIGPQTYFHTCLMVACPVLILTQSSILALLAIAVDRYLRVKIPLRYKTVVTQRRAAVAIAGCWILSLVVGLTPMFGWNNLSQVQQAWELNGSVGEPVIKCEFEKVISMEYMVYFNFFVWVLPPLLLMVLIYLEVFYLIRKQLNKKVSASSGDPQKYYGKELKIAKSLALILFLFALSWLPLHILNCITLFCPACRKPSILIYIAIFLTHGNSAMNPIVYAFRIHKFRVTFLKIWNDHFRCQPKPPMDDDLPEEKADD
Method: (§1) The cDNAs for human A1, A2A, A2B or A3 AdoRs were prepared by RT-PCR from total RNA of human cells or tissues and sequenced on both strands. The expression vector containing each of these cDNAs and a second vector containing a neomycin or puromycin-resistance gene were introduced to HEK-293 or CHO cells by Lipofectin-Plus (Life Technology). Colonies were selected by growing transfected cells in the presence of neomycin or puromycin. Stably transfected cells were maintained in Dulbecco's modified Eagle's medium (DMEM) or F-12 medium with 10% fetal bovine serum, 100 μg/ml penicillin, 100 μg/ml streptomycin and appropriate concentrations of neomycin or puromycin. These stably transfected cells were referred to as HEK-“AdoR” or CHO-“AdoR” depending on the receptors that they express. The cell lines used routinely were CHO-A1, HEK-A2A, HEK-A2B.and CHO-A3 cells. In addition, hamster DDT1 MF-2 cells that express endogenous A1 AdoRs were also used to determine the binding activities of compounds for A1 AdoRs.
(§2) Monolayers of transfected cells or DDT1 MF-2 were washed with phosphate buffered saline (PBS) and harvested in a buffer containing 10 mM HEPES (pH 7.4), 10 mM EDTA and protease inhibitors. The cells were homogenized in polytron for 1 minute at setting 4 and centrifuged at 29000 g for 15 minutes at 4° C. The cell pellets were washed with a buffer containing 10 mM HEPES (pH7.4), 1 mM EDTA and protease inhibitors, and were resuspended in the same buffer supplemented with 10% sucrose. Frozen aliquots were kept at −80° C.
(§3) The affinities of compounds for A1, A2A, A2B or A3 AdoRs were determined in competition studies using radioligands such as ^3H—CPX (A1 antagonist), or ^3H—CCPA (A1 agonist), ^3H-ZM241385 (A2A antagonist) or ^3H-CGS21680 (A2A agonist), ^3H-ZM241385 (A2B antagonist) or ^125I-AB-MECA (A3 agonist) and membranes of corresponding cells. […] The assays were incubated for 60-90 minutes, stopped by filtration onto GF/B filter plates using Packard Harvester and washed four times with ice-cold TM buffer (10 mM Tris, 1 mM MgCl2, pH 7.4). The amounts of radioligands that bound to the GF/B filter plates were determined by scintillation counting. Nonspecific binding were determined in the presence of 1-10 μM of cold ligands. Bmax and KD values were calculated using GraphPad software.

Human-A2B (HEK-A2B) = molecular target: T2, Human-A2B (HEK-A2B) (Homo sapiens, UniProt P29275); experiment: Radioligand binding, human A2B AdoR, HEK-A2B membranes
T2 construct: expressed in transfected cells; host or cells: HEK-293 cells, stably transfected (HEK-A2B)
T2 sequence (P29275 1-332): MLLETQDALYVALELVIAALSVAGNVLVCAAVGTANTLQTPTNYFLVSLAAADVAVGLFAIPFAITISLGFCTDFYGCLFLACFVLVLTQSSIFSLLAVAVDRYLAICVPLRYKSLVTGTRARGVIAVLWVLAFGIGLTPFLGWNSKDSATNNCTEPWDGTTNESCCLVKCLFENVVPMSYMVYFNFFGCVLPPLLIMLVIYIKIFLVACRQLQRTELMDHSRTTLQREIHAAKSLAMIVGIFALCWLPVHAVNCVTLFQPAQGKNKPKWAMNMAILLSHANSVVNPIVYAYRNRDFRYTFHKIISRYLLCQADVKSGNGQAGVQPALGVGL
Method: as §1, §2
[…] The amounts of radioligands that bound to the GF/B filter plates were determined by scintillation counting. Nonspecific binding were determined in the presence of 1-10 μM of cold ligands. Bmax and KD values were calculated using GraphPad software.

Human-A2A (HEK-A2A) = molecular target: T3, Human-A2A (HEK-A2A) (Homo sapiens, UniProt P29274); experiment: Radioligand binding, human A2A AdoR, HEK-A2A membranes
T3 construct: expressed in transfected cells; host or cells: HEK-293 cells, stably transfected (HEK-A2A)
T3 sequence (P29274 whole entry): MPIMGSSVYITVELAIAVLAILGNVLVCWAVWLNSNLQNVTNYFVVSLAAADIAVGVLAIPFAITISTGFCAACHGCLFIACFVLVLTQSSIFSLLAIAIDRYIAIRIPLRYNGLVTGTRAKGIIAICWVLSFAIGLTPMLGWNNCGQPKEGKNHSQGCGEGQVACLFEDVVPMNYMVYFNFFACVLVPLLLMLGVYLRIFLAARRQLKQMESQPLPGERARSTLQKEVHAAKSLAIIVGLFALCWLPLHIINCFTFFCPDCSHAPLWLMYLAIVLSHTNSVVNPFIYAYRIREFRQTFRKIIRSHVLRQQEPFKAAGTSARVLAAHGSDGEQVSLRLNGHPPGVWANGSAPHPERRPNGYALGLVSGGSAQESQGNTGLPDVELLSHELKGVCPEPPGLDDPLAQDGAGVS
Method: as §1, §2, §3

Human-A1 (CHO-A1) = molecular target: T4, Human-A1 (CHO-A1) (Homo sapiens, UniProt P30542); experiment: Radioligand binding, human A1 AdoR, CHO-A1 membranes
T4 construct: expressed in transfected cells; host or cells: CHO cells, stably transfected (CHO-A1)
T4 sequence (P30542 1-326): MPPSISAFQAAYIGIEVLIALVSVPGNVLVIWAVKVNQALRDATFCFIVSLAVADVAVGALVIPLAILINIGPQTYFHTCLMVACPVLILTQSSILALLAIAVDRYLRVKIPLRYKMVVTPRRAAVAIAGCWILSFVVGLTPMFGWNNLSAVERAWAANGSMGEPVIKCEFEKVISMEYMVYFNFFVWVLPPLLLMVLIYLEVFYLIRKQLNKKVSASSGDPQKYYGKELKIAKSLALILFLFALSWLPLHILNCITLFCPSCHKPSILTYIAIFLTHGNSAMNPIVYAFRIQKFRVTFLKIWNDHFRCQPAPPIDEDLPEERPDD
Method: as §1, §2, §3

[1] = 3H-CPX radioligand, DDT1 MF-2 membranes, read-out: Ki (low) Hamster-A1 DDT1 MF-2
[2] = 3H-CGS21680 radioligand (footnote c), HEK-A2B membranes, read-out: Ki (low) Human-A2B HEK-A2B
[3] = 3H-ZM241385 radioligand, HEK-A2A membranes, read-out: Ki (low) Human-A2A HEK-A2A
[4] = 3H-CPX radioligand, CHO-A1 membranes, read-out: Ki (low) Human-A1 CHO-A1

Structure (SMILES)	Ki (Hamster-A1 (DDT1 MF-2)) [nM]	Ki (Human-A2B (HEK-A2B)) [nM]	Ki (Human-A2A (HEK-A2A)) [nM]	Ki (Human-A1 (CHO-A1)) [nM]	Ki (Hamster-A1 (DDT1 MF-2); [1]) [nM]	Ki (Human-A2B (HEK-A2B); [2]) [nM]	Ki (Human-A2A (HEK-A2A); [3]) [nM]	Ki (Human-A1 (CHO-A1); [4]) [nM]
Cn1c(-c2ccc(O)cc2)nc2c(NC3CCCC3)ncnc21 [4-[6-(cyclopentylamino)-9-methylpurin-8-yl]phenol]	4	> 6670	> 5000	9	–	–	–	–
Cn1c(-c2cccc(Cl)c2)nc2c(NC3CCCC3)ncnc21 [[8-(3-chlorophenyl)-9-methylpurin-6-yl]cyclopentylamine]	–	–	–	–	3	> 6670	> 5000	5
Cn1c(-c2ccc(Cl)cc2)nc2c(NC3CCCC3)ncnc21 [[8-(4-chlorophenyl)-9-methylpurin-6-yl]cyclopentylamine]	–	–	–	–	10	> 6670	> 5000	9
CCCn1c(-c2ccccc2)nc2c(NC3CCCCC3)ncnc21 [cyclohexyl(8-phenyl-9-propylpurin-6-yl)amine]	–	–	–	–	11	> 6670	> 5000	25
CCn1c(-c2ccccc2)nc2c(NC3CCCCC3)ncnc21 [cyclohexyl(9-ethyl-8-phenylpurin-6-yl)amine]	–	–	–	–	4	> 6670	> 5000	11
Cn1c(-c2ccccc2)nc2c(NC3CCCCC3)ncnc21 [cyclohexyl(9-methyl-8-phenylpurin-6-yl)amine]	–	–	–	–	1	> 6670	> 5000	2
Cn1c(-c2cccnc2)nc2c(NC3CCCC3)ncnc21 [cyclopentyl(9-methyl-8-(3-pyridyl)purin-6-yl)amine]	–	–	–	–	84	> 6670	> 5000	184
Cn1c(-c2ccc(F)cc2)nc2c(NC3CCCC3)ncnc21 [cyclopentyl[8-(4-fluorophenyl)-9-methylpurin-6-yl]amine]	–	–	–	–	1	> 6670	> 5000	5
COc1ccc(-c2nc3c(NC4CCCC4)ncnc3n2C)cc1 [cyclopentyl[8-(4-methoxyphenyl)-9-methylpurin-6-yl]amine]	–	–	–	–	22	> 6670	> 5000	32
Cc1ccccc1-c1nc2c(NC3CCCC3)ncnc2n1C [cyclopentyl[9-methyl-8-(2-methylphenyl)purin-6-yl]amine]	–	–	–	–	20	> 6670	> 5000	42
Cc1cccc(-c2nc3c(NC4CCCC4)ncnc3n2C)c1 [cyclopentyl[9-methyl-8-(3-methylphenyl)purin-6-yl]amine]	–	–	–	–	2	> 6670	> 5000	5
Cc1ccc(-c2nc3c(NC4CCCC4)ncnc3n2C)cc1 [cyclopentyl[9-methyl-8-(4-methylphenyl)purin-6-yl]amine]	–	–	–	–	3	> 6670	> 5000	5
